Experimental data published in patent publication US20230183753A1, “Methods of in Vitro Cell Delivery” (Intellia Therapeutics, Inc., priority 2020, published 2023).

What was measured:
Format in all cases: cell-based, human
[1] = system: B2M, TRAC, TRBC1/2, CIITA; test: NGS editing profile of T cells with BC22n or Cas9 mRNA, single or four guides, LNP titration, Example 16A; details: four guides simultaneously, with trans UGI;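 note: activated T cells exposed to LNPs 72 h after activation, kept at 37 °C, harvested on day 10 post activation, editing measured by NGS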
Protocol: Cells were expanded in T cell basal media for 72 hours prior to LNP transfection.
LNPs were mixed to fixed total mRNA weight ratios of 6:3:2 for editor mRNA, guide RNA, and UGI mRNA respectively as described in Table 12. […] LNP mixtures were incubated for 5 minutes at 37° C. in T cell basal media substituting 6% cynomolgus monkey serum (Bioreclamation IVT, Cat. CYN220760) for fetal bovine serum.
T cells were incubated at 37° C. with 5% CO2 for the duration of the experiment.
In total, T cells were exposed to 6 different LNPs simultaneously (editor mRNA, UGI mRNA, 4 guides).

[2] = system: B2M, CD3, HLA II-DR, DP, DQ; test: Flow cytometry of surface proteins (B2M, CD3, HLA II-DR, DP, DQ) after LNP delivery, Example 16.B.6; details: LNP treatment
Protocol: (§1) LNPs were formulated generally as in Example 1 with a single RNA species cargo. […] Seventy-two hours post activation, T cells were washed and suspended in OpTmizer media with cytokines without human serum. […] A control group including unedited T cells (no LNP) was also included. At 16 hours post-delivery, a subset of cells was used to measure cell viability and another subset of cells was processed for imaging of γH2AX foci. The remaining T cells continued to expand in culture. Media was changed 5 days and 8 days after activation and on the eleventh day post activation, cells were harvested for analysis by NGS, flow cytometry and UnIT. NGS was performed as in Example 1.
(§2) On day 8 post-editing, T cells were phenotyped by flow cytometry to determine B2M, CD3 and HLA II− DR, DP, DQ protein expression. Briefly, T cells were incubated in a cocktail of antibodies targeting B2M-APC/Fire™ 750 (BioLegend® Cat. No. 316314), CD3-BV605 (BioLegend® Cat. No. […]) and HLA II− DR, DP, DQ-PE (BioLegend® Cat. No. 361716). Cells were subsequently washed, processed on a Cytoflex flow cytometer (Beckman Coulter) and analyzed using the FlowJo software package. T cells were gated based on size, shape, viability, and MHC II expression. […]

[3] = system: interchromosomal translocations; test: UnIT structural variant assay (interchromosomal translocations), Example 16.B.7; details: multiplex editing with 4 guides by LNP
Protocol: On day 8 post-editing a subset of T cells from the untreated, LNP-Cas9-4 guides and LNP-BC22n-4 guides samples were collected, spun down and resuspended in 100 μL of PBS. gDNA was isolated from the cells using DNeasy Blood & Tissue Kit (Qiagen Cat. 69504). The UnIT structural variant characterization assay was applied to these gDNA samples. High molecular weight genomic DNA is simultaneously fragmented and sequence-tagged (‘tagmented’) with the Tn5 transposase and an adapter with a partial Illumina P5 sequence and a 12 bp unique molecular identifier (UMI). Two sequential PCRs using a primer to P5 and hemi-nested gene specific primers (GSP) imparting the Illumina the P7 sequence to create two Illumina compatible NGS libraries per sample. Sequencing across both directions of the CRISPR/Cas9 targeted cut site with the two libraries allows the inference and quantification of structural variants in DNA repair outcomes after genome editing.

B2M, CD3, MHC II = test: Flow cytometry of antigen negative T cells (B2M, CD3, MHC II) after BC22n or Cas9 editing, Example 16A
Description: Cells were subsequently washed, processed on a Cytoflex instrument (Beckman Coulter) and analyzed using the FlowJo software package. T cells were gated based on size, shape, viability, and antigen expression.

B2M, TRAC, TRBC, CIITA = test: NGS percent editing after LNP delivery of BC22n or Cas9 with single or four guides, Example 16.B.6; details: 4 guides delivered by LNP
Protocol: as §1, §2

Q: What does the source list for “BC22n: mRNA encoding editor: H. sapiens APOBEC3A fused to S. pyogenes-D10A Cas9 nickase by an XTEN linker, without UGI”?
A: maximum total editing for each locus compared with Cas9, in words [1]: higher percentages of maximum total editing for each locus; triple knockout cells compared with Cas9, in words [2]: greater percentage of triple knockout cells; interchromosomal translocations / structural variation (UnIT), in words [3]: reduced to background levels; % of cells lacking all three antigens (triple knockout: B2M, CD3, MHC II) (B2M, CD3, MHC II; four guides, with trans UGI, highest total RNA dose of 550 ng): 84.2%; R square, C to T conversions compared to antigen knockout (B2M, CD3, MHC II; samples treated with one guide only): 0.93; percent editing at each locus compared with Cas9, in words (B2M, TRAC, TRBC, CIITA): percent editing is higher at each locus
